Data set [1] is described as follows: Stability in suspension (isopropanol, 7 days). The data set is classed as physicochemical. Conditions: room temperature, LC/MS. Here is the method: c) Stability in Suspension and as Solid:
4.7-4.8 g of the test substance are suspended in 200 ml of isopropanol and stirred at room temperature for 7 days. The solid is filtered off and air-dried at room temperature for 3 days. LC/MS (Method 2) is then used to measure whether there has been a degradation of the test substance.

Data set [2] can be described thus: Stability in buffer at various pH values. The data set is classed as physicochemical. The procedure:
b) Stability in Buffer at Various pH Values:
0.3 mg of the test substance is weighed into a 2 ml HPLC vial and 0.5 ml of acetonitrile or acetonitrile/DMSO (9:1) is added. The substance is dissolved by putting the sample vessel in an ultrasonic bath for about 10 seconds. Then 0.5 ml of the respective (buffer) solution is added, and the sample is again treated in the ultrasonic bath.
(Buffer) solutions employed:
pH 4: 1 liter of Millipore water is adjusted to pH 4.0 with 1 N hydrochloric acid;
pH 7.4: 90.0 g of sodium chloride, 13.61 g of potassium dihydrogen phosphate and 83.35 g of 1 N sodium hydroxide solution are made up to 1 liter with water; this solution is then further diluted 1:10 with Millipore water.
5 μl portions of the test solution are analyzed by HPLC for their content of unchanged test substance, and of active substance (A) produced, every hour over a period of 24 hours at 37° C. The percentage areas of the appropriate peaks are used for quantification.
HPLC method for Examples 41 and 44:
Agilent 1100 with DAD (G1315B), binary pump (G1312A), autosampler (G1329A), column oven (G1316A), thermostat (G1330B); column: Kromasil 100 C18, 250 mm×4 mm, 5 μm; column temperature: 30° C.; mobile phase A: water+5 ml of perchloric acid/liter, eluent B: acetonitrile; gradient: 0 min 90% A→5.0 min 40% A→18.0 min 10% A→19.0 min 10% A→21.0 min 90% A→23.0 min 90% A; flow rate: 2.0 ml/min; UV detection: 288 nm.
HPLC Method for Examples 50 and 59:
Agilent 1100 with DAD (G1315B), binary pump (G1312A), autosampler (G1329A), column oven (G1316A), thermostat (G1330B); column: Kromasil 100 C18, 125 mm×4 mm, 5 μm; column temperature: 30° C.; mobile phase A: water+5 ml of perchloric acid/liter, eluent B: acetonitrile; gradient: 0 min 90% A→5.0 min 60% A→7.0 min 60% A→10.0 min 10% A→12.0 min 10% A→14.0 min 90% A→16.0 min 90% A; flow rate: 2.0 ml/min; UV detection: 294 nm.
HPLC Method for Example 54:
Agilent 1100 with DAD (G1314A), binary pump (G1312A), autosampler (G1329A), column oven (G1316A), thermostat (G1330A); column: Kromasil 100 C18, 250 mm×4 mm, 5 μm; column temperature: 30° C.; mobile phase A: water+5 ml of perchloric acid/liter, eluent B: acetonitrile; gradient: 0 min 90% A→5.0 min 40% A→18.0 min 10% A→19.0 min 10% A→21.0 min 90% A→23.0 min 90% A; flow rate: 2.0 ml/min; UV detection: 288 nm.
The ratios of the peak areas (F) at the respective time points in relation to the peak areas at the starting time are shown in Table 2 for representative exemplary embodiments: […]

Data set [3] is described as follows: Determination of the solubility in 5% strength aqueous dextrose solution. In kind it is physicochemical. Conditions: saline or isotonic, thermodynamic from solid, room temperature, 24 h. The procedure: B-8. Determination of Solubility, Stability and Liberation Behavior a) Determination of the Solubility:
The test substance is suspended in 5% strength aqueous dextrose solution. This suspension is shaken at room temperature for 24 h. After ultracentrifugation at 224 000 g for 30 min, the supernatant is diluted with DMSO and analyzed by HPLC. A two-point calibration plot of the test compound in DMSO is used for quantification.
Agilent 1100 with DAD (G1315A), quat. pump (G1311A), autosampler CTC HTS PAL, degasser (G1322A) and column thermostat (G1316A); column: Phenomenex Gemini C18, 5 μm, 50 mm×2 mm; temperature: 40° C.; eluent A: water/phosphoric acid pH 2; eluent B: acetonitrile; flow rate: 0.7 ml/min; gradient: 0-0.5 min 85% A, 15% B; ramp: 0.5-3 min 10% A, 90% B; 3-3.5 min 10% A, 90% B; ramp: 3.5-4 min 85% A, 15% B; 4-5 min 85% A, 15% B.
Agilent 1100 with DAD (G1315A), quat. pump (G1311A), autosampler CTC HTS PAL, degasser (G1322A) and column thermostat (G1316A); column: VDSoptilab Kromasil 100 C18, 3.5 μm, 60 mm×2.1 mm; temperature: 30° C.; eluent A: water+5 ml perchloric acid/I; eluent B: acetonitrile; flow rate: 0.75 ml/min; gradient: 0-0.5 min 98% A, 2% B; ramp: 0.5-4.5 min 10% A, 90% B; 4.5-6 min 10% A, 90% B; ramp: 6.5-6.7 min 98% A, 2% B; 6.7-7.5 min 98% A, 2% B.

Data set [4] concerns spontaneously hypertensive rats. Kind of data set: Measurement of blood pressure and heart rate on awake rats (telemetry). Conditions: maximum reduction in heart rate, oral administration of 3 mg/kg, awake SH rats. The data set is classed as in vivo. The procedure: B-5. Measurement of Blood Pressure and Heart Rate
Awake spontaneously hypertensive rats (SH-Ratten) carrying an internal transmitter capable of measuring permanently both blood pressure and heart rate (telemetric monitoring of hemodynamic parameters) and sitting in a cage fitted with motion sensors are orally administered test substances in various dosages. Blood pressure and heart rate and changes thereof, and also the movements and the activity of the animals are then recorded and evaluated for 24 hours.

A short description of data set [5]: Stability as solid (90° C., 7 days). In kind it is physicochemical. Conditions: sealed vial, HPLC. Here is the method: To assess the stability of the solids, 20 mg of the solids obtained in this manner are stored in a sealed Head-Space vial at 90° C. in a drying cabinet without vacuum for 7 days. HPLC is then used to measure whether there has been a degradation of the test substance.
HPLC Method for Measuring the Stability of the Solid of Example 63:
HPLC Method for Measuring the Stability of the Solid of Example 44: […]

The nature of data set [6]: i.v. pharmacokinetics in Wistar rats. In kind it is in vivo. Conditions: after i.v. administration. The procedure:
e) i.v. Pharmacokinetics in Wistar Rats:
(§1) On the day before administration of the substance, a catheter for obtaining blood is implanted in the jugular vein of the experimental animals (male Wistar rats, body weight 200-250 g) under Isofluran® anesthesia.
(§2) On the day of the experiment, a defined dose of the test substance is administered as solution into the tail vein using a Hamilton® glass syringe (bolus administration, duration of administration<10 s). Blood samples (8-12 time points) are taken through the catheter sequentially over the course of 24 h after administration of the substance. Plasma is obtained by centrifuging the samples in heparinized tubes. Acetonitrile is added to a defined plasma volume per time point to precipitate proteins. After centrifugation, test substance and, where appropriate, known cleavage products of the test substance in the supernatant are determined quantitatively using a suitable LC/MS-MS method.
The measured plasma concentrations are used to calculate pharmacokinetic parameters of the test substance and of the active ingredient compound (A) liberated therefrom, such as AUC, Cmax, T1/2 (half-life) and CL (clearance).

A short description of data set [7]: Oral pharmacokinetics in Wistar rats. In kind it is in vivo. Conditions: after oral administration. Here is the method: f) Oral Pharmacokinetics in Wistar Rats:
as §1
as §2, with “stomach by gavage.” for “tail vein using a Hamilton® glass syringe (bolus administration, duration of administration<10 s).”
The measured plasma concentrations are used to calculate pharmacokinetic parameters of the test substance and of the active ingredient compound (A) liberated therefrom, such as AUC, Cmax and T1/2 (half-life).

Structures can show the parent of a compound that is named as a salt.

The term solubility denotes the dissolved amount per volume that the medium holds. A higher solubility goes with much dissolved substance. For the molecule `C[C@H](N)C(=O)N[C@@H](C)C(=O)OCCOc1ccc(-c2c(C#N)c(SCc3csc(-c4ccc(Cl)cc4)n3)nc(N3CCCC3)c2C#N)cc1` [Example 44, 2-{4-(2-({(2-(4-Chlorophenyl)-1,3-thiazol-4-yl)methyl}sulfanyl)-3,5-dicyano-6-(pyrrolidin-1-yl)pyridin-4-yl)phenoxy}ethyl L-alanyl-L-alaninate hydrochloride], in data set [1], the “Degradation of the test substance in suspension” value is recorded as “no degradation”. For the same molecule, the “% test substance after 4 h (F(t = 4 h) × 100/F(t = 0 h))” value (“% test substance after 4 h” below) in data set [2] (pH 4, 37° C.) is given as 99%; in data set [2] (pH 7.4, 37° C.) it was 78%. In addition, the “% test substance after 24 h (F(t = 24 h) × 100/F(t = 0 h))” value (from here on “% test substance after 24 h”) is 99% in data set [2] (pH 4, 37° C.) and 26% in data set [2] (pH 7.4, 37° C.). For the same molecule, in data set [3], the solubility at 24 h was found to be 410 µg/mL. Besides, the Heart rate reduction in data set [4] is reported as −20%. Also, in data set [5], the “Degradation of the solid” value is recorded as “no degradation”. Further, the “Detectability of the administered substance in plasma” value (from here on “Detectability”) in data set [6] and in data set [7] was “no longer detectable in plasma even at the first measurement point” throughout.

On to `CC[C@H](C)[C@H](N)C(=O)N[C@@H](C)C(=O)OCCOc1ccc(-c2c(C#N)c(SCc3csc(-c4ccc(Cl)cc4)n3)nc(N3CCCC3)c2C#N)cc1` [Example 63, 2-{4-(2-({(2-(4-Chlorophenyl)-1,3-thiazol-4-yl)methyl}sulfanyl)-3,5-dicyano-6-(pyrrolidin-1-yl)pyridin-4-yl)phenoxy}ethyl L-isoleucyl-L-alaninate hydrochloride], for which the “Degradation of the test substance in suspension” value in data set [1] was “no degradation”. The “% test substance after 4 h” value came to 98% in data set [2] (pH 4, 37° C.) and 93% in data set [2] (pH 7.4, 37° C.). In addition, the “% test substance after 24 h” value in data set [2] (pH 4, 37° C.) is 98%; in data set [2] (pH 7.4, 37° C.), 67%. Besides, in data set [4], the Heart rate reduction was −20%. The “Degradation of the solid” value in data set [5] is “no degradation”. Moreover, the “Detectability” value in data set [6] and in data set [7] was “no longer detectable in plasma even at the first measurement point” in each case.

As to `C[C@H](NC(=O)[C@@H](N)CCCCN)C(=O)OCCOc1ccc(-c2c(C#N)c(SCc3csc(-c4ccc(Cl)cc4)n3)nc(N3CCCC3)c2C#N)cc1` [Example 41, 2-{4-(2-({(2-(4-Chlorophenyl)-1,3-thiazol-4-ylmethyl}sulfanyl)-3,5-dicyano-6-(pyrrolidin-1-yl)pyridin-4-yl)phenoxy}ethyl L-lysyl-L-alaninatedihydrochloride], the “% test substance after 4 h” value was 97% in data set [2] (pH 4, 37° C.) and 37% in data set [2] (pH 7.4, 37° C.). Further, the “% test substance after 24 h” value stood at 99% in data set [2] (pH 4, 37° C.) and 0% in data set [2] (pH 7.4, 37° C.). The solubility at 24 h in data set [3] stood at 650 µg/mL. For the same molecule, the Heart rate reduction in data set [4] is −5%. The “Detectability” value in data set [6] and in data set [7] was “no longer detectable in plasma even at the first measurement point” throughout.

For the origin of these results see patent publication US8772498B2, “Alkylamine-substituted dicyanopyridine and amino acid ester prodrugs thereof” (Bayer Intellectual Property GmbH, priority 2009, dated 2014).
